Results on 25 compounds are retold here after US20170260178A1 (SPERO GYRASE, INC., priority 2012, published 2017).

Experiment [1] relates to H. influenzae (ATCC 49247). As to the kind of experiment: Bacterial assay: MIC against H. influenzae. The conditions noted are these: Haemophilus influenzae, ATCC49247; H. influenzae ATCC 49247; read-out: minimal inhibitory concentration (MIC). It counts as cell-based.
The subject of another experiment is S. pyogenes (ATCC 51339). As to the kind of experiment: Bacterial assay: MIC against S. pyogenes. Format: cell-based, Streptococcus pyogenes. The conditions noted are these: Streptococcus pyogenes, ATCC51339, read-out: minimal inhibitory concentration (MIC).
The subject of the next experiment is S. aureus (ATCC 29213). Briefly: Bacterial assay: MIC against S. aureus. Format: cell-based, Staphylococcus aureus. The conditions noted are these: Staphylococcus aureus, ATCC29213, read-out: minimal inhibitory concentration (MIC).

Molecules are shown by their SMILES. Converted amounts (≈) assume the structure as drawn.

Turning to `CCNC(=O)Nc1nc2cc(-c3cnc(C(C)O)nc3)cc(-c3nccc(OC)c3F)c2s1` (centres unmarked) [Compound 178, 1-ethyl-3-[7-(3-fluoro-4-methoxy-2-pyridyl)-5-[2-[1-hydroxyethyl]pyrimidin-5-yl]-1,3-benzothiazol-2-yl]urea], the values for the MIC (in experiment [1]; in the experiment with S. pyogenes (ATCC 51339); in the experiment with S. aureus (ATCC 29213)) were ≤ 2 µg/mL, ≤ 1 µg/mL and ≤ 1 µg/mL, respectively.
On to `CCNC(=O)Nc1nc2cc(-c3cnc(C(C)(O)CO)nc3)cc(-c3ccccn3)c2s1` (centres unmarked) [Compound 157, 1-[5-[2-[1,2-dihydroxy-1-methyl-ethyl]pyrimidin-5-yl]-7-(2-pyridyl)-1,3-benzothiazol-2-yl]-3-ethyl-urea], for which the results for the MIC (in experiment [1]; in the experiment on S. pyogenes (ATCC 51339); in the experiment on S. aureus (ATCC 29213)) were ≤ 2 µg/mL, ≤ 1 µg/mL and ≤ 1 µg/mL, respectively.
On to `CCNC(=O)Nc1nc2cc(-c3cnc(C(C)(C)O)nc3)cc(-c3ccc(OCCN4CCOCC4)cn3)c2s1` [Compound 56, 1-ethyl-3-[5-[2-(1-hydroxy-1-methyl-ethyl)pyrimidin-5-yl]-7-[5-(2-morpholinoethoxy)-2-pyridyl]-1,3-benzothiazol-2-yl]urea], for which the MIC in experiment [1] was ≤ 2 µg/mL; in the experiment with S. pyogenes (ATCC 51339), ≤ 1 µg/mL; in the experiment with S. aureus (ATCC 29213) it was ≤ 1 µg/mL.
Consider `CCNC(=O)Nc1nc2cc(-c3cnc(C(C)(C)O)nc3)cc(-c3cc(CN4CC[C@@H](F)C4)ccn3)c2s1` [Compound 36, 1-ethyl-3-[7-[4-[[(3R)-3-fluoropyrrolidin-1-yl]methyl]-2-pyridyl]-5-[2-(1-hydroxy-1-methyl-ethyl)pyrimidin-5-yl]-1,3-benzothiazol-2-yl]urea], for which the values for the MIC (in experiment [1]; in the experiment on S. pyogenes (ATCC 51339); in the experiment with S. aureus (ATCC 29213)) were ≤ 2 µg/mL, ≤ 1 µg/mL and ≤ 1 µg/mL, respectively.
Turning to `CCNC(=O)Nc1nc2cc(-c3cnc([C@H](C)O)nc3)cc(-c3cc(CN4CCOCC4)ccn3)c2s1` [Compound 122, 1-ethyl-3-[5-[2-[(1S)-1-hydroxyethyl]pyrimidin-5-yl]-7-[4-(morpholinomethyl)-2-pyridyl]-1,3-benzothiazol-2-yl]urea], the results for the MIC (in experiment [1]; with S. pyogenes (ATCC 51339); with S. aureus (ATCC 29213)) were ≤ 2 µg/mL, ≤ 1 µg/mL and ≤ 1 µg/mL, respectively.
In the case of `CCNC(=O)Nc1nc2cc(-c3cnc(C(C)O)nc3)cc(-c3ccc(C(C)O)cn3)c2s1` (centres unmarked) [Compound 168, 1-ethyl-3-[7-[5-(1-hydroxyethyl)-2-pyridyl]-5-[2-(1-hydroxyethyl)pyrimidin-5-yl]-1,3-benzothiazol-2-yl]urea], the MIC was ≤ 2 µg/mL in experiment [1], ≤ 1 µg/mL in the experiment on S. pyogenes (ATCC 51339) and ≤ 1 µg/mL in the experiment on S. aureus (ATCC 29213).
`[2H]C1([2H])OC([2H])([2H])C([2H])([2H])N(Cc2ccnc(-c3cc(-c4cnc(C(C)O)nc4)cc4nc(NC(=O)NCC)sc34)c2)C1([2H])[2H]` (centres unmarked) [Compound 70, 1-ethyl-3-[5-[2-(1-hydroxyethyl)pyrimidin-5-yl]-7-[4-[(2,2,3,3,5,5,6,6-octadeuteriomorpholin-4-yl)methyl]-2-pyridyl]-1,3-benzothiazol-2-yl]urea]: the MIC in experiment [1] is ≤ 2 µg/mL; in the experiment with S. pyogenes (ATCC 51339), ≤ 1 µg/mL; with S. aureus (ATCC 29213), ≤ 1 µg/mL.
For the compound `CCNC(=O)Nc1nc2cc(-c3cnc(C(O)C4CC4)nc3)cc(-c3ccccn3)c2s1` (centres unmarked) [Compound 58, 1-[5-[2-[cyclopropyl(hydroxy)methyl]pyrimidin-5-yl]-7-(2-pyridyl)-1,3-benzothiazol-2-yl]-3-ethyl-urea], the MIC is ≤ 2 µg/mL in experiment [1], ≤ 1 µg/mL with S. pyogenes (ATCC 51339) and ≤ 1 µg/mL with S. aureus (ATCC 29213).
Regarding `CNC(=O)Nc1nc2cc(-c3cnc(C(C)O)nc3)cc(-c3ccccn3)c2s1` (centres unmarked) [Compound 83, 1-[5-[2-(1-hydroxyethyl)pyrimidin-5-yl]-7-(2-pyridyl)-1,3-benzothiazol-2-yl]-3-methyl-urea], the MIC in experiment [1] is ≤ 2 µg/mL; in the experiment on S. pyogenes (ATCC 51339) it was ≤ 1 µg/mL; in the experiment with S. aureus (ATCC 29213), ≤ 1 µg/mL.
Regarding `CCNC(=O)Nc1nc2cc(-c3cnc(N4CCC(C)(C(=O)O)CC4)nc3)cc(-c3cc(C(C)O)ccn3)c2s1` (centres unmarked) [Compound 88, 1-[5-[2-(ethylcarbamoylamino)-7-[4-(1-hydroxyethyl)-2-pyridyl]-1,3-benzothiazol-5-yl]pyrimidin-2-yl]-4-methyl-piperidine-4-carboxylic acid], the MIC was ≤ 2 µg/mL in experiment [1], ≤ 1 µg/mL in the experiment with S. pyogenes (ATCC 51339) and ≤ 1 µg/mL in the experiment on S. aureus (ATCC 29213).
Regarding `CCNC(=O)Nc1nc2cc(-c3cnc(C4(O)CCSCC4)nc3)cc(-c3ccccn3)c2s1` [Compound 127, 1-ethyl-3-[5-[2-(4-hydroxytetrahydrothiopyran-4-yl)pyrimidin-5-yl]-7-(2-pyridyl)-1,3-benzothiazol-2-yl]urea], the MIC was ≤ 2 µg/mL in experiment [1], ≤ 1 µg/mL with S. pyogenes (ATCC 51339) and ≤ 1 µg/mL with S. aureus (ATCC 29213).
For the compound `CCNC(=O)Nc1nc2cc(-c3cnc(C(C)O)nc3)cc(-c3cc(CN4CC5(COC5)C4)ccn3)c2s1` (centres unmarked) [Compound 73, 1-ethyl-3-[5-[2-(1-hydroxyethyl)pyrimidin-5-yl]-7-[4-(6-oxa-2-azaspiro[3.3]heptan-2-ylmethyl)-2-pyridyl]-1,3-benzothiazol-2-yl]urea], the MIC was ≤ 2 µg/mL in experiment [1], ≤ 1 µg/mL in the experiment on S. pyogenes (ATCC 51339) and ≤ 1 µg/mL in the experiment with S. aureus (ATCC 29213).
As to `CCNC(=O)Nc1nc2cc(-c3cnc([C@@H](C)O)nc3)cc(-c3ccc(OC)cn3)c2s1` [Compound 202, 1-ethyl-3-[5-[2-[(1R)-1-hydroxyethyl]pyrimidin-5-yl]-7-(5-methoxy-2-pyridyl)-1,3-benzothiazol-2-yl]urea], the MIC in experiment [1] was ≤ 2 µg/mL; in the experiment with S. aureus (ATCC 29213) it was ≤ 1 µg/mL.
For `[2H]C1([2H])OC([2H])([2H])C([2H])([2H])N(Cc2ccnc(-c3cc(-c4cnc(C(C)(C)O)nc4)cc4nc(NC(=O)NCC)sc34)c2)C1([2H])[2H]` [Compound 198, 1-ethyl-3-[5-[2-(1-hydroxy-1-methyl-ethyl)pyrimidin-5-yl]-7-[4-[(2,2,3,3,5,5,6,6-octadeuteriomorpholin-4-yl)methyl]-2-pyridyl]-1,3-benzothiazol-2-yl]urea], in that order: ≤ 2 µg/mL and ≤ 1 µg/mL.
As to `CCNC(=O)Nc1nc2cc(-c3cnc(C(C)(C)O)nc3)cc(-c3nccc(NCC(C)(C)O)n3)c2s1` [Compound 103, 1-ethyl-3-[5-[2-(1-hydroxy-1-methyl-ethyl)pyrimidin-5-yl]-7-[4-[(2-hydroxy-2-methyl-propyl)amino]pyrimidin-2-yl]-1,3-benzothiazol-2-yl]urea], the MIC is ≤ 1 µg/mL in the experiment on S. pyogenes (ATCC 51339) and 2 µg/mL (≈ 3.83 µM) with S. aureus (ATCC 29213).
For `CCNC(=O)Nc1nc2cc(-n3cnc(C(C)(C)O)c3)cc(-c3ccccn3)c2s1` [Compound 11, 1-ethyl-3-[5-[4-(1-hydroxy-1-methyl-ethyl)imidazol-1-yl]-7-(2-pyridyl)-1,3-benzothiazol-2-yl]urea], in that order: ≤ 1 µg/mL and 4 µg/mL (≈ 9.47 µM).
As to `CCNC(=O)Nc1nc2cc(-c3cnc(C(C)(C)O)nc3)c(OCCN3CCOCC3)cc2s1` [Compound 199, 1-ethyl-3-[5-[2-(1-hydroxy-1-methyl-ethyl)pyrimidin-5-yl]-6-(2-morpholinoethoxy)-1,3-benzothiazol-2-yl]urea], the MIC with S. pyogenes (ATCC 51339) and in the experiment on S. aureus (ATCC 29213) was 2 µg/mL (≈ 4.11 µM) throughout.
Take `CCNC(=O)Nc1nc2cc(-c3cnc(C(C)O)nc3)cc(-c3cc(CN4CCC[C@H]4C(=O)O)ccn3)c2s1` (stereo partly drawn) [Compound 72, (2S)-1-[[2-[2-(ethylcarbamoylamino)-5-[2-(1-hydroxyethyl)pyrimidin-5-yl]-1,3-benzothiazol-7-yl]-4-pyridyl]methyl]pyrrolidine-2-carboxylic acid]: the MIC in the experiment on S. pyogenes (ATCC 51339) and in the experiment on S. aureus (ATCC 29213) was 8 µg/mL (≈ 14.6 µM) each time.
On to `CCNC(=O)Nc1nc2cc(-c3cnc(C(C)(C)O)nc3)c(OCC3CCCO3)cc2s1` (centres unmarked) [Compound 3, 1-ethyl-3-[5-[2-(1-hydroxy-1-methyl-ethyl)pyrimidin-5-yl]-6-(tetrahydrofuran-2-ylmethoxy)-1,3-benzothiazol-2-yl]urea], for which the MIC with S. pyogenes (ATCC 51339) and in the experiment with S. aureus (ATCC 29213) was ≤ 1 µg/mL throughout.
For `CCNC(=O)Nc1nc2cc(-c3cnc(C(C)(C)O)nc3)c(OCCO)cc2s1` [Compound 186, 1-ethyl-3-[6-(2-hydroxyethoxy)-5-[2-(1-hydroxy-1-methyl-ethyl)pyrimidin-5-yl]-1,3-benzothiazol-2-yl]urea], the MIC in the experiment on S. pyogenes (ATCC 51339) was 2 µg/mL (≈ 4.79 µM); in the experiment with S. aureus (ATCC 29213), 4 µg/mL (≈ 9.58 µM).
For `CCNC(=O)Nc1nc2cc(-c3ccc(C(C)(C)O)nc3)c(O)c(CN3CCOCC3)c2s1` [Compound 44, 1-ethyl-3-[6-hydroxy-5-[6-(1-hydroxy-1-methyl-ethyl)-3-pyridyl]-7-(morpholinomethyl)-1,3-benzothiazol-2-yl]urea], in that order: 16 µg/mL (≈ 33.9 µM) and 16 µg/mL (≈ 33.9 µM).
For `CCNC(=O)Nc1nc2cc(-c3cnc(C(C)O)nc3)cc(-c3nccc(N4CC(OC)C4)n3)c2s1` (centres unmarked) [Compound 93, 1-ethyl-3-[5-[2-(1-hydroxyethyl)pyrimidin-5-yl]-7-[4-(3-methoxyazetidin-1-yl)pyrimidin-2-yl]-1,3-benzothiazol-2-yl]urea], in that order: ≤ 1 µg/mL and ≤ 1 µg/mL.
The corresponding values for `CCNC(=O)Nc1nc2cc(-c3cnc(C(C)(C)O)nc3)cc(-c3cc(CN4CC(C)(O)C4)ccn3)c2s1` [Compound 2, 1-ethyl-3-[7-[4-[(3-hydroxy-3-methyl-azetidin-1-yl)methyl]-2-pyridyl]-5-[2-(1-hydroxy-1-methyl-ethyl)pyrimidin-5-yl]-1,3-benzothiazol-2-yl]urea] are ≤ 1 µg/mL and ≤ 1 µg/mL.
For `CCNC(=O)Nc1nc2cc(-c3cnc(C(C)O)nc3)cc(-c3ncc(F)c(N4CCOCC4)n3)c2s1` (centres unmarked) [Compound 106, 1-ethyl-3-[7-(5-fluoro-4-morpholino-pyrimidin-2-yl)-5-[2-(1-hydroxyethyl)pyrimidin-5-yl]-1,3-benzothiazol-2-yl]urea], the MIC in the experiment with S. pyogenes (ATCC 51339) and with S. aureus (ATCC 29213) was ≤ 1 µg/mL throughout.
As to `CCNC(=O)Nc1nc2cc(-c3ccc(C(O)C(F)(F)F)nc3)cc(-c3cc(CN4CCOCC4)ccn3)c2s1` (centres unmarked) [Compound 108, 1-ethyl-3-[7-[4-(morpholinomethyl)-2-pyridyl]-5-[6-(2,2,2-trifluoro-1-hydroxy-ethyl)-3-pyridyl]-1,3-benzothiazol-2-yl]urea], the MIC in the experiment with S. pyogenes (ATCC 51339) and with S. aureus (ATCC 29213) was ≤ 1 µg/mL each time.
